Data: patent US5736523A, “Antineoplastic heteronapthoquinones” (Biochem Pharma Inc., priority 1995, dated 1998)
Like-named read-outs stand apart in the source and are kept apart here.

Tests used:
Format in all cases: cell-based, human
[1] = system: SKOV3 (Ovarian adenocarcinoma); test: In vitro cytotoxicity, microculture tetrazolium (MTT) assay, SKOV3; details: read-out: IC50
Description: (§1) In Vitro Cytotoxicity--Microculture Tetrazolium Assay
(§2) The microculture tetrazolium assay was used to test in vitro cytotoxicity. This assay is described in Plumb, J. A. et al., 1989 Cancer Research 49, 4435-4440, which is herein incorporated by reference. The cytotoxicity of compounds towards tumor cells is measured in vitro using the assay. This assay method is based upon the ability of live, but not dead cells to reduce the yellow water soluble dye 3-(4;5-dimethylthiazol-2-yl)-2,5-diphenyltetrazolium bromide (MTT) to its water insoluble purple formazan product.
(§3) Human Tumor Cell lines, used were:
SKOV3 (Ovarian adenocarcinoma)--provided by Dr. V. Ling,
(§4) The cells were maintained in exponential growth in culture in minimal essential media (MEM) supplemented with non-essential amino acids, and containing 15% (v/v) fetal bovine serum, 5 mM L-glutamine, 1 mM sodium pyruvate, and 0.1 U/ml insulin. All cell lines were grown at 37° C. in an atmosphere of 5% CO2 in air.
(§5) Test compounds: 20 mM in DMSO and diluted to a final concentration of 200 μM in culture medium before use.
(§6) The following is the generic description of the assay method. It should be noted that although the conditions described work well with the cells listed above, the initial plating density and the MTT concentration used should be verified for each new cell line used to test compounds.
(§7) For each assay, doxorubicin is included as an inter-assay standard. This allows us to monitor the behaviour of the assay in general, and in particular, to check that the SKVLB line has maintained its resistant phenotype.
(§8) The plate layout is done in the following manner: The assays are carried out in 96-well (8 well×12 well) microtiter plates. Serial dilutions of the compound are tested along the length of the plate. A 1:3 serial dilution of compound in culture medium covers a concentration range from 100 μM to 1.7 nM. Each concentration of compound is tested in quadruplet, allowing two compounds to be tested per plate. Wells containing no cells (blank) and cells with no test compound (control) are included on each plate.
(§9) Cells are plated out in 100 μl of culture medium in the microtiter plates at a density of around 1,500-4,000 cells per well. The plates are incubated overnight to allow the cells to become adherent after which the test compound is added (100 μl of appropriate dilution per well). The cells are incubated with test compound at 37° C. for 48 h after which the compound is replaced with fresh medium. After a further 48 h incubation at 37° C., 50 μl of MTT solution (2 mg/ml) is added to each well. The plates are incubated in the dark for 4 h at 37° C. after which the medium is removed. The MTT formazan product is extracted from the cells by the addition of 200 μl DMSO followed by 50 μl of Sorensen's buffer. The plates are shaken briefly and the absorbance at 570 nm is read using a Molecular Devices UV max plate reader. Curves are fit to the MTT assay data using a four parameter logistic equation, and the data are normalized to fit a 0% to 100% survival scale.

[2] = system: SKVLB (Ovarian; multidrug resistant); test: In vitro cytotoxicity, microculture tetrazolium (MTT) assay, SKVLB; details: for IC50: SKVLB, multidrug resistant, read-out: IC50; for VLB/OV3: ratio SKVLB / SKOV3
Outline: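 Multidrug-resistant ovarian SKVLB cells exposed 48 h at 37 °C to 1:3 serial dilutions (100 μM–1.7 nM), then 48 h in fresh medium. MTT reduction read at 570 nm after DMSO extraction; four-parameter logistic fit normalized to 0–100% survival.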

[3] = system: T47D (Ductal carcinoma of breast); test: In vitro cytotoxicity, microculture tetrazolium (MTT) assay, T47D; details: read-out: IC50
Description: as §1, §2, §3
T47D (Ductal carcinoma of breast)--ATCC catalog #HTB-133.
as §4, §5, §6, §7, §8, §9

Lox (Melanoma) = test: In vitro cytotoxicity, microculture tetrazolium (MTT) assay, Lox; details: read-out: IC50
Description: as §1, §2, §3
Lox (Melanoma)--Southern Research Institute.
as §4, §5, §6, §7, §8, §9

[4] = system: HT 29 (Colon adenocarcinoma); test: In vitro cytotoxicity, microculture tetrazolium (MTT) assay, HT 29; details: read-out: IC50
Description: as §1, §2, §3
HT 29 (Colon adenocarcinoma) ATCC catalog #HTB-38.
as §4, §5, §6, §7, §8, §9

Molecule	IC50 ([1]; SKOV3) [µM]	IC50 [2] [µM]	VLB/OV3 [2]	IC50 [3] [µM]	IC50 (Lox (Melanoma)) [µM]	IC50 ([4]; HT29) [µM]	IC50 ([1]; Homo sapiens, SK-OV-3, SKOV3) [µM]	IC50 ([2]; Homo sapiens) [µM]	IC50 ([3]; Homo sapiens) [µM]	IC50 (Lox (Melanoma); Homo sapiens) [µM]	IC50 ([4]; Homo sapiens, HT-29, HT29) [µM]
(1S,2'S,3R) and (1R,2'S,3S)-methyl-(1-[O-prolinol]-3,4,5,12-tetrahydronaphtho-[2,3-C] pyran-3-yl) ketone hydrochloride salt [BCH1658]	0.233	1.47	6.31	0.494	0.316	0.661	–	–	–	–	–
C=CCC1CC2=C(C(=O)c3ccccc3C2=O)C(OC2CC(NC(=O)C(F)(F)F)C(O)C(C)O2)O1 (stereo not drawn) [BCH1648]	0.0519	0.315	6.07	0.36	0.138	0.309	–	–	–	–	–
CCC1CC2=C(C(=O)c3ccccc3C2=O)C(OC2CC(OC(C)=O)C(OC(C)=O)C(C)O2)O1 (mixture of isomers) [BCH1607, (1'S,1S,3S) and (1'S,1R,3R)-5,10-dioxo-3-ethyl-1-(2',3',4',6'-tetradeoxy-3',4'-diacetoxy-L-lyxohexo-pyranose)-3,4,5,10-tetrahydro-1H-naphtho [2,3-C] pyran]	7.26	19.8	2.73	14.7	8.97	21.6	–	–	–	–	–
Methyl-(6-hydroxy-5,10-dioxo-3,4,5,10-tetrahydronaphtho-[2,3-c]-pyran-3-yl)ketone and methyl-(9-hydroxy-5,10-dioxo-3,4,5,10-tetrahydronaphtho-[2,3-c]-pyran-3-yl) ketone [BCH2062]	0.81	0.842	1.04	0.776	0.354	1.14	–	–	–	–	–
CC(=O)[C@H]1CC2=C(C(=O)c3ccccc3C2=O)[C@H](O[C@H]2C[C@H](NC(=O)C(F)(F)F)[C@H](OC(=O)CBr)[C@H](C)O2)O1 [BCH2105, (1'-S,1-S,3-R)-methyl-(1-[2',3',4',6' tetradeoxy-3'-trifluoroacetamido-4'-O-(2-bromo-acetyl)-L-lyxopyranose]-5,10-dioxo-3,4,5,10 tetrahydronaphtho-[2,3-c]pyran-3-yl) ketone]	0.003	0.37	123	0.019	0.025	0.0069	–	–	–	–	–
CC(=O)C1CC2=C(C(=O)c3ccccc3C2=O)C(OC2CC(NC(=O)C(F)(F)F)C(NC(=O)C(F)(F)F)C(C)O2)O1 [BCH2102, (1R,3S,1'S) and (1S,3R,1'S)-Methyl-(1-[2',3',4',6'-tetradeoxy-3',4'-bis-trifluoroacetamido-L-arabinohexopyranose]-5,10-dioxo-3,4,5,10-tetrahydronaphthaleno-[2,3-c]pyran-3-yl) ketone]	0.13	0.723	5.65	0.3	0.186	0.15	–	–	–	–	–
C=CC[C@H]1CC2=C(C(=O)c3ccccc3C2=O)[C@@H](OC2C[C@H](NC(=O)C(F)(F)F)[C@H](O)[C@H](C)O2)O1 (stereo partly drawn) [BCH1649, (1'-S,1-R,3-S)-3-([2',3',6'-trideoxy-3'-trifluoroacetamido-4'-hydroxy-L-lyhohexopyranose]-5,10-dioxo-3,4,5,10-tetrahydronaphtho-[2,3-c]-pyran-3-yl)-propene]	0.11	0.459	4.17	0.38	0.217	0.331	–	–	–	–	–
CC(=O)C1CC2=C(C(=O)c3ccccc3C2=O)C(O[C@H]2C[C@H](O)[C@H](O)[C@H](C)O2)O1 (mixture of isomers) [BCH2117, (1'S,1S,3R) and (1'S,1R,3S)-methyl-(1-[dideoxy-2',6'-dihydroxy-3',4'-L-lyxohexopyranose]-5,10-dioxo-3,4,5,10-tetrahydronaphtho-[2,3-c]-pyran-3-yl) ketone]	0.0095	0.332	35.13	0.0374	0.073	0.03	–	–	–	–	–
CC(=O)C1CC2=C(C(=O)c3ccccc3C2=O)C(OC[C@@H]2CCCN2C(=O)OC(C)(C)C)O1 (mixture of isomers) [BCH2067, (1S,2'S,3R) and (1R,2'S,3S)-methyl-(1-[O-N-BOC-prolinol]-5,10-dioxo-3,4,5,10-tetrahydro-1H-naphtho [2,3-C]pyran-3-yl) ketone]	1.2	2.24	2	0.54	1.1	0.323	–	–	–	–	–
CC(=O)[C@@H]1CC2=C(C(=O)c3ccccc3C2=O)[C@@H](O[C@@H]2O[C@H](CO)[C@@H](O)[C@H](O)[C@H]2NC(=O)N(CCCl)N=O)O1 [BCH2038, (1'R,1R,3S)-3-aceto-5,10-dioxo-1-(2-deoxy-2-chloroethyl-nitrosoureido-D-glucopyranose)-3,4,5,10-tetrahydro-1H-naphtho-[2,3-C] pyran]	0.832	3.5	4.16	2	0.173	2	–	–	–	–	–
CC(=O)OC1C(C)OC(OC2OC(C(C)=O)CC3=C2C(=O)c2ccccc2C3=O)C(I)C1OC(C)=O (mixture of isomers) [BCH2065, (1'S,1R,1S) and (1'S,1S,3R)-methyl-(1-[2',6'-dideoxy-3',4'-diacetoxy-2'-iodo-L-arabino-hexopyranose]-5,10-dioxo-3,4,5,10-tetrahydronaphtho-[2,3-c]-pyran-3-yl) ketone]	1.54	6.1	4	2.2	1.4	3.42	–	–	–	–	–
CC(=NO)[C@@H]1CC2=C(C(=O)c3ccccc3C2=O)[C@@H](O[C@H]2C[C@H](NC(=O)C(F)(F)F)[C@H](O)[C@H](C)O2)O1 [BCH2115, (1'S,1R,3S)-3 (oximoethyl)-5,10-dioxo-1 (2,3,6-trideoxy-3-trifluoroacetamido-L-lyxohexopyranose)-3,4,5,10-tetrahydro-1H-naphtho-(2,3-c)-pyran]	–	–	> 50	–	–	–	2.3	> 100	5.3	4	5.6
CC(NC(=O)C(F)(F)F)[C@H]1CC2=C(C(=O)c3ccccc3C2=O)[C@H](O[C@H]2C[C@H](O)[C@H](O)[C@H](C)O2)O1 (stereo partly drawn) [BCH2018, (1'S,1S,3R)-3-(trifluoroacetamidoethyl)-5,10-dioxo-1-(2',3',6'-trideoxy-3',4'-dihydroxy-L-lyxohexopyranose)-3,4,5,10-tetrahydro-1H-naphtho-[2,3-c]-pyran]	–	–	5.69	–	–	–	3.11	17.7	8.56	2.38	14.2
CC(=O)C1CC2=C(C(=O)c3ccccc3C2=O)C(OC2CC(NC(=O)C(F)(F)F)C(NC(=O)C(F)(F)F)C(C)O2)O1 [BCH2104, (1R,3S,1'S) and (1S,3R,1'S)-Methyl-(1-[2',3',4',6'-tetradeoxy-3',4'-bis-trifluoroacetamido-L-arabinohexopyranose]-5,10-dioxo-3,4,5,10-tetrahydronaphthaleno-[2,3-c]pyran-3-yl) ketone]	0.21	1.1	5.05	0.613	0.24	0.171	–	–	–	–	–
CC(=O)C1CC2=C(C(=O)c3ccccc3C2=O)C(OC2CC(NC(=O)C(F)(F)F)C(O)C(C)O2)O1 (stereo not drawn) [BCH2144]	21.4	16.1	0.75	7.22	3.28	5.93	–	–	–	–	–
